Laboratory results as given in patent US20130296330A1, “MACROCYCLIC INTEGRASE INHIBITORS FOR USE IN THE TREATMENT OF FELINE IMMUNODEFICIENCY VIRUS” (ELANCO ANIMAL HEALTH IRELAND LIMITED, priority 2011, published 2013).

Legend:
FIV strain Thymo-113 = experiment: Inhibitory activity on FIV replication wild type, feline thymocytes (FIV p24 ELISA); type: cell-based; conditions: Feline immunodeficiency virus, Thymocyte, 144 h, primary feline thymocytes, FIV strain Thymo-113, 6 days, read-out: EC50 (concentration required to reduce antigen production by 50%)
Method: (§1) The anti-FIV activity of the compounds was tested in primary feline thymocytes isolated form specific pathogen free cats, and in Crandell feline kidney (CRFK) cells.
Feline thymocytes were maintained in complete Iscove's Modified Medium (Iscoves medium supplemented with GlutamaxI (Invitrogen/Gibco BRL), 10% inactivated fetal calf serum, antibiotics (100 IU/ml penicillin and 100 μg/ml streptomycin) 2-Mercapto-ethanol (50 μM) and 100 IU/ml human recombinant IL-2 (Chiron). Cells were seeded into a 96 well plate (5×10^4 cells per well) and pre-incubated with four-fold dilutions of the antiviral compound. Plates were incubated for 1 hour in a humidified incubator with a 5% CO2 atmosphere at 37° C. Subsequently, cells were inoculated with 100 TCID50 of FIV strain Thymo-113 in the presence of the different concentrations of compound. After 2 hours cells were washed twice in Iscove's medium and new medium containing the different concentrations of compound were added. After incubation for 6 days the supernatant was harvested and the amount of virus within the supernatant determined using a FIV p24 ELISA. The 50% effective concentration (EC50) was defined as the concentration of the compound required to reduce the antigen production by 50% compared to untreated controls.

FIV strain Utrecht-113 = experiment: Inhibitory activity on FIV replication wild type, CRFK cells (FIV p24 ELISA); type: cell-based; conditions: Feline immunodeficiency virus, 144 h, FIV strain Utrecht-113, 6 days, read-out: EC50 (concentration required to reduce antigen production by 50%)
Method: as §1
Crandell Feline Kidney (CRFK) cells were maintained in DMEM (Dulbecco's Modified Eagle's Medium (Lonza) supplemented with, 10% inactivated fetal calf serum, antibiotics (100 IU/ml penicillin and 100 μg/ml streptomycin). Cells were seeded into a 96 well plate (5×10^4 cells per well) and pre-incubated with four-fold dilutions of the antiviral compound for 1 hours. The CrFK cells were washed with PBS DEAE 50 mg/l, inoculated with 100 TCID50 of FIV strain Utrecht-113 in the presence of the different concentrations of compound and subsequently incubated for 2 hours in a humidified incubator with a 5% CO2 atmosphere at 37° C. After 2 hours cells were washed twice in DMEM medium and new medium containing the different concentrations of compound were added. After incubation for 6 days the supernatant was harvested and the amount of virus within the supernatant determined using a FIV p24 ELISA. The 50% effective concentration (EC50) was defined as the concentration of the compound required to reduce the antigen production by 50% compared to untreated controls.

[1] = Cellular cytotoxic activity, mock-infected CRFK cells, MTT assay; type: cell-based, feline; conditions: cat, read-out: CC50 (50% cytotoxic concentration)
Method: (§2) The cytotoxicity of the compounds was determined in parallel to the experiments under assay 1 on mock-infected feline thymocytes respectively CRFK cells cultured in the presence or absence of different concentrations of the compound.
After 6 days of incubation cell viability of the CRFK cells was measured by using a colorimetric MTT assay. A solution of 3-(4,5-dimethylthiazol-2-yl)-2,5-diphenyltetrazolium bromide (MTT) in PBS at a final concentration of 0.5 mg/ml was added to each well. After 2 hours incubation at 37 C and 5% CO2, the medium containing the MTT was removed and the cells were lysed by addition of 200 μl DMSO to each well. Following 10 minutes incubation at room temperature on a rocking plate, the optical density (OD) values at […] were determined. The compound concentration that decreased the viability of 50% of the cells was defined as the 50% cytotoxic concentration (CC50).

[2] = Cellular cytotoxic activity, mock-infected feline thymocytes, trypan blue exclusion staining; type: cell-based; conditions: cat, read-out: CC50 (50% cytotoxic concentration)
Method: as §2
Cytotoxicity on feline thymocytes was determined by trypan blue exclusion staining whereby the CC50 for compound (6) was measured as >10 nM.

EC50 (FIV strain Thymo-113): 20 nM | EC50 (FIV strain Utrecht-113): 20 nM
Compound: CN1c2nc(c(O)c3ncccc23)C(=O)NCc2ccc(F)cc2C(=O)NCCCCCS1(=O)=O [Compound 6]
CC50 at 6 days [1]: > 10 nM | CC50 [2]: > 10 nM
